Tests used:
Test in all cases: biochemical
Set-up in all cases: KINOMEscan active-site competition binding, percent of control (100 = no competition)
Conditions in all cases: competition binding, percent control
CLK2 = CLK2 (Homo sapiens, UniProt P49760)
MEK3 = target: T1, MEK3 (Homo sapiens, UniProt P46734)
T1 construct: gene MAP2K3

ERK3 = target: T2, ERK3 (Homo sapiens, UniProt Q16659)
T2 construct: gene MAPK6

LOK = target: T3, LOK (Homo sapiens, UniProt O94804)
T3 construct: gene STK10

TXK = TXK (Homo sapiens, UniProt P42681)
TXK, sequence (P42681 whole entry): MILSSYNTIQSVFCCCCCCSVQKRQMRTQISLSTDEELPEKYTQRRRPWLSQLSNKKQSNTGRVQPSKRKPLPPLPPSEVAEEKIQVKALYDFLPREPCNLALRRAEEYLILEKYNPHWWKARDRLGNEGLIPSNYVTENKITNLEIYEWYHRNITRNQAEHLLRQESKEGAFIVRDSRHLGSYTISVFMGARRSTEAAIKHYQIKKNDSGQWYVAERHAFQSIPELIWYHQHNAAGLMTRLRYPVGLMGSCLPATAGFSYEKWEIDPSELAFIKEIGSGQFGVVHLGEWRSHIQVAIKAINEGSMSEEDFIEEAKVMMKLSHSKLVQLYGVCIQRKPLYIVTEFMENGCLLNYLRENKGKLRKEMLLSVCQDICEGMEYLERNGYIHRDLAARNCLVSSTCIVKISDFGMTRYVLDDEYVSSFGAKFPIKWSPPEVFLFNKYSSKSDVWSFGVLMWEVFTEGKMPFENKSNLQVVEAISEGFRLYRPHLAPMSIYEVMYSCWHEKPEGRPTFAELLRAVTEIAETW

RET(V804M) = RET(V804M) (Homo sapiens, UniProt P07949, V804M)
EPHA5 = EPHA5 (Homo sapiens, UniProt P54756)
EPHA5, sequence (P54756 whole entry): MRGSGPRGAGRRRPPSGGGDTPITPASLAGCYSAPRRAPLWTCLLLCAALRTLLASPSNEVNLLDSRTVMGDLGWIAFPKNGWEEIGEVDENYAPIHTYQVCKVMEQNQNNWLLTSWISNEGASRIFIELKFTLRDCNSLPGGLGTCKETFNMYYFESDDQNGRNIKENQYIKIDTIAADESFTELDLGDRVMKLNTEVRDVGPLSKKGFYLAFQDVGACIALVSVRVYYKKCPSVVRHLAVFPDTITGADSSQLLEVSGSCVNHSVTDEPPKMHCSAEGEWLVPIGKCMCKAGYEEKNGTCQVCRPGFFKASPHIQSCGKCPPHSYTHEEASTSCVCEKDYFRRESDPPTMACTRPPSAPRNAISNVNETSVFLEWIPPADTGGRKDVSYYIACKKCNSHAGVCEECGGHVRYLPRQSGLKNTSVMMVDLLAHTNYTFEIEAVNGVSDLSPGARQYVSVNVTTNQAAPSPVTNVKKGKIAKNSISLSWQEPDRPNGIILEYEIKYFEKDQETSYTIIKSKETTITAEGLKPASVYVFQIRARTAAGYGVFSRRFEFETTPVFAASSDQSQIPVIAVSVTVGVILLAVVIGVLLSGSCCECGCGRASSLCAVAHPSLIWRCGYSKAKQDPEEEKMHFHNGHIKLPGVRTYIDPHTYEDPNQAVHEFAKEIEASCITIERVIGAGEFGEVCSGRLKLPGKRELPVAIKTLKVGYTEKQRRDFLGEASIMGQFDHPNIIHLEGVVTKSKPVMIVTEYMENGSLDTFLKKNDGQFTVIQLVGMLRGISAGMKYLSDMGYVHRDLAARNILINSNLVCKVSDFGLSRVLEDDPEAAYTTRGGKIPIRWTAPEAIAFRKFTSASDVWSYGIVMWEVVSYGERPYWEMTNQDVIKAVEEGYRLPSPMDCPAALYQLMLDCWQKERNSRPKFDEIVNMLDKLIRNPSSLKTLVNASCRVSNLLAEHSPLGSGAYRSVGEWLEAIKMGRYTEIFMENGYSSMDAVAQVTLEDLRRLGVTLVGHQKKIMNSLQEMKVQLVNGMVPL

[1] = target: T4, TYK2(JH2domain-pseudokinase) (Homo sapiens, UniProt P29597)
T4 construct: JH2domain-pseudokinase

MYO3B = MYO3B (Homo sapiens, UniProt Q8WXR4)
DLK = target: T5, DLK (Homo sapiens, UniProt Q12852)
T5 construct: gene MAP3K12
T5 sequence (Q12852 whole entry): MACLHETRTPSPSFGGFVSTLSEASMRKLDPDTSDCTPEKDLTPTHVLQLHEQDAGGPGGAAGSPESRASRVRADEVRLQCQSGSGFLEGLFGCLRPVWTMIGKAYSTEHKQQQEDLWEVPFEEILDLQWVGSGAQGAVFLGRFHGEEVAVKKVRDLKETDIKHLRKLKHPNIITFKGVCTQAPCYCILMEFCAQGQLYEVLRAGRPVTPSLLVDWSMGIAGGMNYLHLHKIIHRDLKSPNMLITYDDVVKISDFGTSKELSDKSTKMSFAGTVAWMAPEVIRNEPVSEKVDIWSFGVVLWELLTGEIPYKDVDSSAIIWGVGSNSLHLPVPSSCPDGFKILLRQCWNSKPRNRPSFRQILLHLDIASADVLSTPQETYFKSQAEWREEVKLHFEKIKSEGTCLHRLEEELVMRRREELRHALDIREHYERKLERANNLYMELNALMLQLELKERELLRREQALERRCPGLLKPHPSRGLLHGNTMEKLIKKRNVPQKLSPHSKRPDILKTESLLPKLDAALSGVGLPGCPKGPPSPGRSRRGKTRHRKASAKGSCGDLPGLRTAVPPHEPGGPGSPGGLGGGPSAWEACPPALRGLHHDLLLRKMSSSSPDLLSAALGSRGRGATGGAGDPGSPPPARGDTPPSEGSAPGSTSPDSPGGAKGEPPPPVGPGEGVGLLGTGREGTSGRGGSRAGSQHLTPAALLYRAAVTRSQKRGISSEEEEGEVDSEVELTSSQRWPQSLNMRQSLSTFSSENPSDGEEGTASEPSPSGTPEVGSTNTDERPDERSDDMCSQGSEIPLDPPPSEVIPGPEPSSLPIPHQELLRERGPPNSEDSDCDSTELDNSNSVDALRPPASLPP

KIT = KIT (Homo sapiens, UniProt P10721)
KIT, sequence (P10721 whole entry): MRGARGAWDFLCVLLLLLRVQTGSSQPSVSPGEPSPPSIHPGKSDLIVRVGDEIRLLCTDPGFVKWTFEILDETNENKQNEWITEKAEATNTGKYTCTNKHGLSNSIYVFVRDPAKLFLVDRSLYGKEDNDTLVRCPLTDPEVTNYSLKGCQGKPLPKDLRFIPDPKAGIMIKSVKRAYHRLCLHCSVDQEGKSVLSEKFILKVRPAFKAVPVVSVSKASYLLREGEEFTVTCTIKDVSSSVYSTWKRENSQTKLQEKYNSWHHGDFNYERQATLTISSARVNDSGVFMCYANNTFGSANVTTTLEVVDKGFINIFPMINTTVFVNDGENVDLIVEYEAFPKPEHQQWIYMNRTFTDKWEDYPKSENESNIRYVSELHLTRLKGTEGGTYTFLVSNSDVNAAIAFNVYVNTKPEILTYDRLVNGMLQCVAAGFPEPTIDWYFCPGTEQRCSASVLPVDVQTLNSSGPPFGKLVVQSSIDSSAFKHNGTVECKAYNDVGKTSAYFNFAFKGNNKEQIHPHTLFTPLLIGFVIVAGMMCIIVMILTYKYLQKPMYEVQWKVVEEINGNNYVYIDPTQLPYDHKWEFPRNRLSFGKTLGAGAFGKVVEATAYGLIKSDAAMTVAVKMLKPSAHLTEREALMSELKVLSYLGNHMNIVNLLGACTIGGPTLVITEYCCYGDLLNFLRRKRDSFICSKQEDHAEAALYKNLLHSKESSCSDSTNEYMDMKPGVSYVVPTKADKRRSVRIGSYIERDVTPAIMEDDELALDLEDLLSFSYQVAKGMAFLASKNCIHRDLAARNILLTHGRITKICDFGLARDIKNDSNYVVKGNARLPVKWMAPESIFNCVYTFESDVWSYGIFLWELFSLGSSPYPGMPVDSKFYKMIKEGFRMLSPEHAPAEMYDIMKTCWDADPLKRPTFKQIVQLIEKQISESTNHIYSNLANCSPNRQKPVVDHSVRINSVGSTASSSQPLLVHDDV

PIK3C2G = PIK3C2G (Homo sapiens, UniProt O75747)
LTK = LTK (Homo sapiens, UniProt P29376)
CDKL5 = CDKL5 (Homo sapiens, UniProt O76039)
SIK = target: T6, SIK (Homo sapiens, UniProt P57059)
T6 construct: gene SIK1
T6 sequence (P57059 whole entry): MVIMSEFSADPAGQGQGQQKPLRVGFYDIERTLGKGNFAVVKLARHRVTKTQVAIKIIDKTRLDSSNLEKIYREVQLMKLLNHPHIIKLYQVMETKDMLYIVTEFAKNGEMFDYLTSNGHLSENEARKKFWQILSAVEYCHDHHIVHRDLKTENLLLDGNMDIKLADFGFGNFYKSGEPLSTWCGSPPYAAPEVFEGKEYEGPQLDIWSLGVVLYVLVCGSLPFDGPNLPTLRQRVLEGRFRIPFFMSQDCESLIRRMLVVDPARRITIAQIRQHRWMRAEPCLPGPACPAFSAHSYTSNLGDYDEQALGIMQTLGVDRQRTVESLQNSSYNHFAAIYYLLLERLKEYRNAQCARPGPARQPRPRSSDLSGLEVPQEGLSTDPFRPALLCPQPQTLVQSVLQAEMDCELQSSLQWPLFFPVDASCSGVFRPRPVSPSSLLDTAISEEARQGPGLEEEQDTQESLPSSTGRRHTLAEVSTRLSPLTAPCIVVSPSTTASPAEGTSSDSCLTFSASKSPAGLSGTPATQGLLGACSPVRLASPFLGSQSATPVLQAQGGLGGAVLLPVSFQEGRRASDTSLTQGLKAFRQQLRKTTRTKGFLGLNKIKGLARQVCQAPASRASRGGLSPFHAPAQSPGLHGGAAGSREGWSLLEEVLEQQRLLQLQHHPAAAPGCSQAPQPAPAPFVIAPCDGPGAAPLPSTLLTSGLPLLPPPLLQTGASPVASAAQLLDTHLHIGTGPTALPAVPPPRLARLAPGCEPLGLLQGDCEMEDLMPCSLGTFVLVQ

AURKB = AURKB (Homo sapiens, UniProt Q96GD4)
EPHB4 = EPHB4 (Homo sapiens, UniProt P54760)
MYLK4 = MYLK4 (Homo sapiens, UniProt Q86YV6)
MYLK4, sequence (Q86YV6 whole entry): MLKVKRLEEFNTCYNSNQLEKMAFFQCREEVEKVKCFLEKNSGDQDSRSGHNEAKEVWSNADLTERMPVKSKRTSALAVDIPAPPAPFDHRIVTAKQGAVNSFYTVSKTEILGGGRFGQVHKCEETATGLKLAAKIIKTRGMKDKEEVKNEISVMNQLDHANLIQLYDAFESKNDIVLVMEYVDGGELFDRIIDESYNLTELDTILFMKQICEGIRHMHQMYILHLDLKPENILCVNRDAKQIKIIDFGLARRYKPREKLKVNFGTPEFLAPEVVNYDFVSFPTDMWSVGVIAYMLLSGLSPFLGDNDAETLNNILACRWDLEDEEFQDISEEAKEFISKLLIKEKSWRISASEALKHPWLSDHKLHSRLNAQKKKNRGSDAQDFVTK

[2] = target: T7, JAK1(JH2domain-pseudokinase) (Homo sapiens, UniProt P23458)
T7 construct: JH2domain-pseudokinase

MINK = target: T8, MINK (Homo sapiens, UniProt Q8N4C8)
T8 construct: gene MINK1

EPHA2 = EPHA2 (Homo sapiens, UniProt P29317)
CSNK2A2 = CSNK2A2 (Homo sapiens, UniProt P19784)
CAMK1D = CAMK1D (Homo sapiens, UniProt Q8IU85)

T1 sequence (P46734 whole entry): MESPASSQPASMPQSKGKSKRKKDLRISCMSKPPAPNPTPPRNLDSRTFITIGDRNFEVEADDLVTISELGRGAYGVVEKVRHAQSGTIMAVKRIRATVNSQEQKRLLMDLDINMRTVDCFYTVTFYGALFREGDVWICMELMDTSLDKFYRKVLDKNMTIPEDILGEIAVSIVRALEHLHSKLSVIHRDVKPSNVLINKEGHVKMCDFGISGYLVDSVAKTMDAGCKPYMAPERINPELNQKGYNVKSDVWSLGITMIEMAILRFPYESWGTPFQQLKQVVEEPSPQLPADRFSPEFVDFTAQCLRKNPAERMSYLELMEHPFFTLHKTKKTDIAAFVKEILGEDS

COc1ccc(-c2cnccc2-c2cnc(NC(=O)C(C)C)s2)c(C(F)(F)F)c1 [CRT0105446, N-{5-[3-(4-Methoxy-2-trifluoromethyl-phenyl)-pyridin-4-yl]-hiazol-2-yl}-isobutyramide]
remaining binding at 10 µM (CLK2): 78% | remaining binding at 10 µM (MEK3): 83% | remaining binding at 10 µM (ERK3): 100% | remaining binding at 10 µM (LOK): 100% | remaining binding at 10 µM (TXK): 100% | remaining binding at 10 µM (RET(V804M)): 68% | remaining binding at 10 µM (EPHA5): 100% | remaining binding at 10 µM [1]: 100% | remaining binding at 10 µM (MYO3B): 100% | remaining binding at 10 µM (DLK): 100% | remaining binding at 10 µM (KIT): 55% | remaining binding at 10 µM (PIK3C2G): 100% | remaining binding at 10 µM (LTK): 100% | remaining binding at 10 µM (CDKL5): 100% | remaining binding at 10 µM (SIK): 84% | remaining binding at 10 µM (AURKB): 80% | remaining binding at 10 µM (EPHB4): 93% | remaining binding at 10 µM (MYLK4): 71% | remaining binding at 10 µM [2]: 92% | remaining binding at 10 µM (MINK): 100% | remaining binding at 10 µM (EPHA2): 100% | remaining binding at 10 µM (CSNK2A2): 91% | remaining binding at 10 µM (CAMK1D): 79%

Cc1ccc(-c2cnccc2-c2cnc(Nc3ccc(O)cc3)s2)c(Cl)c1 [CRT0105950, 4-{5-[3-(2-Chloro-4-methyl-phenyl)-pyridin-4-yl]-thiazol-2-ylamino}-phenol]
remaining binding at 10 µM (CLK2): 0.45% | remaining binding at 10 µM (MEK3): 27% | remaining binding at 10 µM (ERK3): 97% | remaining binding at 10 µM (LOK): 51% | remaining binding at 10 µM (TXK): 38% | remaining binding at 10 µM (RET(V804M)): 3.4% | remaining binding at 10 µM (EPHA5): 100% | remaining binding at 10 µM [1]: 81% | remaining binding at 10 µM (MYO3B): 90% | remaining binding at 10 µM (DLK): 100% | remaining binding at 10 µM (KIT): 3.2% | remaining binding at 10 µM (PIK3C2G): 95% | remaining binding at 10 µM (LTK): 100% | remaining binding at 10 µM (CDKL5): 99% | remaining binding at 10 µM (SIK): 6.4% | remaining binding at 10 µM (AURKB): 0.15% | remaining binding at 10 µM (EPHB4): 82% | remaining binding at 10 µM (MYLK4): 9.4% | remaining binding at 10 µM [2]: 74% | remaining binding at 10 µM (MINK): 13% | remaining binding at 10 µM (EPHA2): 70% | remaining binding at 10 µM (CSNK2A2): 58% | remaining binding at 10 µM (CAMK1D): 63%

From publication PMC4770715, “LIM kinase inhibitors disrupt mitotic microtubule organization and impair tumor cell proliferation” (Oncotarget, 2015)
